In patent EP3797781A1, “USE OF EC-7072 AND SYNERGIC COMPOSITIONS THEREOF IN TREATMENT OF CHRONIC LYMPHOCYTIC LEUKEMIA” (priority 2019, dated 2021):

System: BCR signaling pathway
Assay: Phosphoflow of BCR signaling nodes in isolated leukemia cells
Type: cell-based, human
Description: Protein phosphorylation levels were evaluated by phosphoflow. Briefly, isolated leukemia cells from patients with CLL were treated with 200 nM EC-7072 or DMSO for 8 or 12 hours. In some experiments, BCR signaling was activated with goat F(ab')2 anti-IgM antibody (10 µg/mL; SouthernBiotech) for 45 minutes. Right afterwards, cells were fixed with 1.8% paraformaldehyde for 10 minutes at RT and permeabilized with 90% ice-cold methanol for 25 minutes at 4 °C. Finally, cells were incubated with specific phospho-antibodies (p-SYK, p-BTK, p-ERK1/2 and p-H2AX from Biolegend, and p-PLCγ2, p-AKT, p-p65 NF-κB and p-STAT3 from BD Bioscience) for 30 minutes at RT and mean fluorescence intensity (MFI) was analyzed by flow cytometry.
The inhibition of the tonic BCR pathway by EC-7072 was evaluated by: • (i) incubating PBMCs from patients with CLL, following treatment with 200 nM EC-7072, for 8 hours. Surface expression of CD79A (Figure 7A), CD79B (Figure 7B) and IgM (Figure 7C) in leukemia cells (n = 5 - 6) was assessed by flow cytometry and the MFI was normalized to the control (DMSO) condition; • (ii) incubating isolated leukemia cells from patients with CLL (n = 10), following treatment with EC-7072 (200 nM), for 8 hours. Phosphorylation levels of p-SYK (Figure 7D), p-BTK (Figure 7E) and p-PLCy2 (Figure 7F) proteins and p-ERK1/2 (Figure 7G), p-AKT (Figure 7H), p-p65 NPκB (Figure 7I) and p-STAT3 (Figure 7J) were evaluated by phosphoflow and the MFI was normalized to the control (DMSO) from each individual patient; • (iii) incubating PBMCs from patients with CLL (n = 8), following treatment with EC-7072 (200 nM), for 8 hours. Viability was determined by DiOC6(3)/PI staining and normalized to the control (DMSO) condition for each individual patient to obtain the mean percentage of viable [DiOC6(3)^+] cells (Figure 7K); • (iv) incubating isolated CLL cells (n = 4) stimulated with CD40L (100 ng/mL) or IL-6 (40 ng/mL) for 15 minutes and detecting respective phosphorylation levels of p65 NF-κB (Figure 7L) and STAT3 (Figure 7M) by phosphoflow to obtain the mean MFI normalized to the control (DMSO) condition for each individual patient; • (v) incubating isolated leukemia cells from 3 patients with CLL, following treatment with 200 nM EC-7072, for 3, 8 and 12 hours. […]
The partial abrogation of EC-7072-induced cell death of primary CLL cells by activation of the BCR was evaluated by: • (i) incubating PBMCs from patients with CLL (n = 15), following treatment with EC-7072 (200 nM) in combination with α-IgM (10 µg/mL), for 24 hours. […]

## CO[C@@H]([C@@H]1Cc2cc3cc(O[C@H]4C[C@@H](O[C@H]5C[C@@H](O)[C@H](O)[C@@H](C)O5)[C@H](O)[C@@H](C)O4)c(C)c(O)c3c(O)c2C(=O)[C@H]1O[C@H]1C[C@@H](O[C@H]2C[C@@H](O[C@H]3C[C@](C)(O)[C@H](O)[C@@H](C)O3)[C@@H](O)[C@@H](C)O2)[C@H](O)[C@@H](C)O1)[C@@H](O)C(C)=O [EC-7072, mithramycin SK]
200 nM, 8 hours, n = 10
  amounts of p-AKT: No marked changes
  levels of phosphorylated (p)-SYK, p-BTK and p-PLCγ2: significant reduction
  phosphorylation levels of ERK1/2, p65 NF-κB and STAT3: significant downregulation
EC-7072 200 nM 8 hours, then α-IgM (10 µg/mL) 15 minutes
  phosphorylation of ERK1/2, AKT, p65 NF-κB and STAT3 ensued by anti-IgM: not significantly reverted
